Experimental data reported in US20200085776A1, “Methods of Reducing C-Reactive Protein and/or Treating Cardiovascular Disease” (CARDAX, INC., priority 2018, published 2020).

Test system: C-reactive protein (CRP)
Assay: CRP (hs-CRP) in blood, CHASE clinical study
Type: in vivo, human
Conditions: Group Z 48 mg BID
Text: This is a two-part study comprising Part I and Part II. Following screening, Part I consists of a randomized, double-blind, placebo controlled dosing period of up to 12 weeks. The study shall be conducted at one or more study sites in Hawaii. Approximately 360 subjects qualified after completion of screening procedures shall be randomized in a 1:1:1 ratio to one of three treatment groups, per Table 1.
The Part I 12-week double-blind dosing period commences with V2, including randomization and first dose of study product, and continues with study visits at Week 1-2 (V3), Week 4 (V4), Week 8 (V5), and Week 12 (V6). V6 procedures will conclude Part I.
Blood shall be obtained at each visit for CRP. The screening specimen shall be processed at the local lab and reported to the study staff for eligibility determination; CRP samples at V7 and V8 may also be processed locally and reported directly to study staff. Samples for CRP from V2 through V6 may be batched, processed, and reported as specified in the Laboratory Manual.
At each these visits, blood was obtained for measurement of CRP, among other parameters. Table 7A provides a summary of the CRP measurements (mg/L) at each visit and Table 7B provides a summary of the differences of CRP levels between V2 and V6.

[1] = V1 screening, subjects with baseline level greater than 2.0
[2] = V2 baseline pre-dose, all subjects
[3] = V2 baseline pre-dose, subjects not taking a hypertension agent
[4] = V2 baseline pre-dose, subjects not taking any cardiac therapeutic agent
[5] = V2 baseline pre-dose, subjects not taking statins
[6] = V2 baseline pre-dose, subjects taking an anti-diabetic agent
[7] = V2 baseline pre-dose, subjects with CAD
[8] = V2 baseline pre-dose, subjects with DM2, hypertension and hyperlipidemia but not CAD
[9] = V2 baseline pre-dose, subjects with Diabetes Mellitus Type II
[10] = V2 baseline pre-dose, subjects with baseline level greater than 2.0
[11] = V2 baseline pre-dose, subjects with hyperlipidemia
[12] = V3 Week 1-2, subjects with baseline level greater than 2.0
[13] = V4 Week 4, subjects with baseline level greater than 2.0
[14] = V5 Week 8, subjects with baseline level greater than 2.0
[15] = V6 Week 12, subjects not taking a hypertension agent
[16] = V6 Week 12, subjects not taking any cardiac therapeutic agent
[17] = V6 Week 12, subjects not taking statins
[18] = V6 Week 12, subjects taking an anti-diabetic agent

CC1=C(/C=C/C(C)=C/C=C/C(C)=C/C=C/C=C(C)/C=C/C=C(C)/C=C/C2=C(C)C(=O)C(O)CC2(C)C)C(C)(C)CC(O)C1=O (stereo not drawn) [Astaxanthin, astaxanthin]
CRP Max (V1 screening, all subjects): 14.17 mg/L | CRP Mean (SD) (V1 screening, all subjects): 5.12 (3.39) mg/L | CRP Median (V1 screening, all subjects): 4.20 mg/L | CRP Min (V1 screening, all subjects): 2.03 mg/L | CRP Max [1]: 14.17 mg/L | CRP Mean (SD) [1]: 5.65 (3.56) mg/L | CRP Median [1]: 4.94 mg/L | CRP Min [1]: 2.03 mg/L | CRP Max [2]: 8.51 mg/L | CRP Mean (SD) [2]: 4.28 (2.32) mg/L | CRP Median [2]: 4.68 mg/L | CRP Min [2]: 1.27 mg/L | CRP Max [3]: 6.30 mg/L | CRP Mean (SD) [3]: 4.52 (1.86) mg/L | CRP Median [3]: 4.68 mg/L | CRP Min [3]: 2.59 mg/L | CRP Max [4]: 8.04 mg/L | CRP Mean (SD) [4]: 4.55 (2.02) mg/L | CRP Median [4]: 4.68 mg/L | CRP Min [4]: 1.81 mg/L | CRP Max [5]: 8.51 mg/L | CRP Mean (SD) [5]: 4.97 (2.51) mg/L | CRP Median [5]: 4.83 mg/L | CRP Min [5]: 1.83 mg/L | CRP Max [6]: 8.51 mg/L | CRP Mean (SD) [6]: 4.48 (2.24) mg/L | CRP Median [6]: 4.98 mg/L | CRP Min [6]: 1.27 mg/L | CRP Max [7]: 6.68 mg/L | CRP Mean (SD) [7]: 3.49 (2.23) mg/L | CRP Median [7]: 3.12 mg/L | CRP Min [7]: 1.27 mg/L | CRP Max [8]: 8.51 mg/L | CRP Mean (SD) [8]: 5.26 (2.32) mg/L | CRP Median [8]: 5.04 mg/L | CRP Min [8]: 2.59 mg/L | CRP Max [9]: 8.51 mg/L | CRP Mean (SD) [9]: 4.78 (2.37) mg/L | CRP Median [9]: 5.01 mg/L | CRP Min [9]: 1.27 mg/L | CRP Max [10]: 8.51 mg/L | CRP Mean (SD) [10]: 5.25 (1.89) mg/L | CRP Median [10]: 5.17 mg/L | CRP Min [10]: 2.29 mg/L | CRP Max [11]: 8.51 mg/L | CRP Mean (SD) [11]: 3.78 (2.28) mg/L | CRP Median [11]: 3.12 mg/L | CRP Min [11]: 1.27 mg/L | CRP Max (V3 Week 1-2, all subjects): 13.08 mg/L | CRP Mean (SD) (V3 Week 1-2, all subjects): 4.86 (3.09) mg/L | CRP Median (V3 Week 1-2, all subjects): 4.52 mg/L | CRP Min (V3 Week 1-2, all subjects): 1.77 mg/L | CRP Max [12]: 13.08 mg/L | CRP Mean (SD) [12]: 5.62 (3.21) mg/L | CRP Median [12]: 4.88 mg/L | CRP Min [12]: 2.27 mg/L | CRP Max (V4 Week 4, all subjects): 7.81 mg/L | CRP Mean (SD) (V4 Week 4, all subjects): 3.42 (1.84) mg/L | CRP Median (V4 Week 4, all subjects): 3.04 mg/L | CRP Min (V4 Week 4, all subjects): 0.90 mg/L | CRP Max [13]: 7.81 mg/L | CRP Mean (SD) [13]: 3.94 (1.86) mg/L | CRP Median [13]: 3.27 mg/L | CRP Min [13]: 0.90 mg/L | CRP Max (V5 Week 8, all subjects): 9.20 mg/L | CRP Mean (SD) (V5 Week 8, all subjects): 3.49 (2.06) mg/L | CRP Median (V5 Week 8, all subjects): 3.04 mg/L | CRP Min (V5 Week 8, all subjects): 0.91 mg/L | CRP Max [14]: 9.20 mg/L | CRP Mean (SD) [14]: 4.09 (2.07) mg/L | CRP Median [14]: 4.17 mg/L | CRP Min [14]: 1.15 mg/L | CRP Max (V6 Week 12, all subjects): 8.84 mg/L | CRP Mean (SD) (V6 Week 12, all subjects): 3.41 (2.24) mg/L | CRP Median (V6 Week 12, all subjects): 2.53 mg/L | CRP Min (V6 Week 12, all subjects): 0.61 mg/L | CRP Max [15]: 4.30 mg/L | CRP Mean (SD) [15]: 2.94 (1.20) mg/L | CRP Median [15]: 2.48 mg/L | CRP Min [15]: 2.04 mg/L | CRP Max [16]: 8.84 mg/L | CRP Mean (SD) [16]: 3.13 (2.14) mg/L | CRP Median [16]: 2.53 mg/L | CRP Min [16]: 0.61 mg/L | CRP Max [17]: 8.84 mg/L | CRP Mean (SD) [17]: 4.16 (2.57) mg/L | CRP Median [17]: 3.24 mg/L | CRP Min [17]: 1.88 mg/L | CRP Max [18]: 7.87 mg/L | CRP Mean (SD) [18]: 3.31 (2.28) mg/L | CRP Median [18]: 2.53 mg/L | CRP Min [18]: 0.61 mg/L | CRP Max (V6 Week 12, subjects with CAD): 2.31 mg/L | CRP Mean (SD) (V6 Week 12, subjects with CAD): 1.57 (0.72) mg/L | CRP Median (V6 Week 12, subjects with CAD): 1.88 mg/L | CRP Min (V6 Week 12, subjects with CAD): 0.61 mg/L
